Assay results published in the Bradley open melting point set (2014).
Structures can show the parent of a compound that is named as a salt.

| SMILES | melting point [°C] |
| --- | --- |
| COc1cc(Cl)c(Cl)c(Cl)c1Cl [1-Methoxy-2,3,4,5-tetrachlorobenzene] | 88 |
| COc1ccc2c(c1)c1c3n2CCN(C)C3=NCC1 [metralindole] | 164 |
| CCCCCCCCCCCC(C)=O [2-tridecanone] | 30 |
| CC(C)c1ccc(O)cc1 [4-isopropylphenol] | 60 |
| Oc1cccc(Cl)c1Cl [2,3-Dichlorophenol] | 56 |
| COC(=O)c1ccccc1OC(C)=O [methyl_2-acetoxybenzoate] | 52 |
| CC(O)C(C)O (stereo not given) [2,3-butanediol] | 25 |
| O=C(c1c(F)c(F)c(F)c(F)c1F)c1c(F)c(F)c(F)c(F)c1F [decafluorobenzophenone] | 93 |
| O=C1CCC(=O)N1C1CCCCC1 [N-(cyclohexyl)succinimide] | 165 |
| CC(=O)NC1C(OC(C)=O)OC(COC(C)=O)C(OC(C)=O)C1OC(C)=O (stereo not given) | 140 |
| COC(=O)/C=C/C(=O)OC [dimethyl fumarate] | 104 |
| CC12CCC3C(C(=O)CC4CC(=O)CCC43C)C1CCC2=O (stereo not given) [androstane-3,7,17-trione] | 232 |
| O=C[C@H](O)[C@H](O)[C@H](O)CO [D-Ribose] | 82 |
| O=[N+]([O-])c1ccc(Cl)c(Cl)c1Cl [2,3,4-Trichloronitrobenzene] | 55.5 |
| Cc1ccc(N)c(N)c1 [3,4-diaminotoluene] | 88 |
| O=C(Nc1ccc([N+](=O)[O-])cc1[N+](=O)[O-])C(C(F)(F)F)C(F)(F)F | 121 |
| COc1ccc([N+](=O)[O-])cc1 [1-Methoxy-4-nitrobenzene] | 48 |

| SMILES | melting point [°C] |
| --- | --- |
| CCCC(O)(CCC)C1(C)CCC(C(=O)O)C(C)(C)O1 (stereo not given) | 112 |
| C1CCC2OCCOCCOC3CCCCC3OCCOCCOC2C1 (stereo not given) [dicyclohexano-18-crown-6] | 50 |
| CCCCOC(=O)c1ccccc1C(=O)OCCCC [Dibutyl phthalate] | -35 |
| CCCCCl [1-Chlorobutane] | -123 |
| O=[N+]([O-])c1c(Cl)c(Cl)cc(Cl)c1Cl [2,3,5,6-tetrachloronitrobenzene] | 100 |
| Nc1c(Br)cc(Br)cc1Br [2,4,6-Tribromoaniline] | 121 |
| CC(=O)CC(C)C [4-Methylpentan-2-one] | -80 |
| CCCCC(=O)OCC(=O)[C@]1(O)Cc2c(O)c3c(c(O)c2[C@@H](OC2CC(NC(=O)C(F)(F)F)C(O)C(C)O2)C1)C(=O)c1c(OC)cccc1C3=O (stereo not given in full) [Valrubicin] | 116 |
| O=[N+]([O-])c1ccc(Cl)c([N+](=O)[O-])c1 [1-Chloro-2,4-dinitrobenzene] | 53 |
| COC1=C(OC)C(=O)C(C)=CC1=O [2,3-dimethoxy-5-methyl-1,4-benzoquinone] | 59 |
| ON=C(c1ccccc1)c1ccccn1 [phenyl 2-pyridyl ketoxime] | 155 |
| C/C=C\CC [cis-2-pentene] | -151 |
| COC(C)(C)C [2-Methoxy-2-methylpropane] | -109 |
| CCN(CC)C(=S)SSC(=S)N(CC)CC [disulfiram] | 70 |
| Nc1c(Cl)cc(Cl)cc1Cl [2,4,6-trichloroaniline] | 77 |
| COP(=S)(OC)Oc1cc(Cl)c(Cl)cc1Cl [fenchlorphos] | 35 |
| CCNC(=O)OC(C)(C)C [N-boc-ethylamine] | 40 |

Further lines, results first:

| melting point [°C] | SMILES |
| --- | --- |
| 183 | NC(=O)c1ccc(N)cc1 [4-aminobenzamide] |
| 107 | COc1cccc(OC)c1B(O)O [2,6-dimethoxybenzeneboronic acid] |
| -75 | C=C(C)C(=O)OCC [Ethyl methacrylate] |
| 160 | Cc1ccc(C=C2N=C(c3ccccc3)OC2=O)o1 [4-(5-Methyl-furan-2-ylmethylene)-2-phenyl-4H-oxazol-5-one] |
| 156 | COc1ccccc1N1CCN(CCCNc2cc(=O)n(C)c(=O)n2C)CC1 [urapidil] |
| 121 | COc1cc(C(=O)NCCCCCC(=O)O)cc(OC)c1OC [capobenicacid] |
| 109 | OB(O)c1ccccc1Br [2-bromobenzeneboronic acid] |
| 75 | CC(C)Cc1ccc(C(C)C(=O)O)cc1 (stereo not given) [ibuprofen] |
| 9 | CCOC(=O)c1cccnc1 [ethyl nicotinate] |
| 166 | CC(=O)OC1CCC2(C)C(CCC3C2CCC2(C)C3CCC2(O)C#Cc2ccccc2)C1 (stereo not given) [17-hydroxy-21-phenylpregn-20-yn-3-yl acetate] |
| 231 | COc1ccc([C@@H]2Sc3ccccc3N(CCN(C)C)C(=O)[C@@H]2OC(C)=O)cc1 [Diltiazem] |
| 71 | O=Cc1cc([N+](=O)[O-])ccc1Cl [2-chloro-5-nitrobenzaldehyde] |
| 149 | NC(=O)NCc1ccccc1 [benzylurea] |
| 83 | CC(C)(C)OC(=O)C(C(=O)Cc1ccccc1)c1ccccc1 (stereo not given) [tert-butyl 3-oxo-2,4-diphenylbutanoate] |
| 115 | CCCCCCCCCCOc1ccc(/C=N/c2ccc(/C=C/C(=O)OCC)cc2)cc1 |
| 287 | O=C(O)/C=C/C(=O)O [Fumaric Acid] |
| 199 | c1ccc2c(c1)c1ccccc1c1ccccc21 [triphenylene] |
| 127 | COc1ccc(N)c([N+](=O)[O-])c1 [4-methoxy-2-nitroaniline] |

| melting point [°C] | SMILES |
| --- | --- |
| 43.5 | CCc1ccc(O)cc1 [4-Ethylphenol] |
| 49 | O=C(O)CCc1ccccc1 [3-phenylpropanoic_acid] |
| 126 | ON=Cc1c(F)cccc1Cl [2-chloro-6-fluorobenzaldoxime] |
| 206 | O=C(O)c1ccccc1N=Nc1ccc(O)cc1 [2-(p-hydroxyphenylazo)benzoic acid] |
| 74 | CCN(CC)c1ccc2c(C)cc(=O)oc2c1 [7-diethylamino-4-methylcoumarin] |
| 127 | O=C1OC(c2ccccc2)(c2ccccc2)C=C1O [3-hydroxy-5,5-diphenylfuran-2(5H)-one] |
| 52 | Cc1ccc(O)c(C(C)(C)C)c1 [2-tert-butyl-4-methylphenol] |
| 113 | O=[N+]([O-])c1ccc(-c2nnc3sc(/C=C/c4ccccc4)nn23)cc1 |
| 55 | c1ccc(CCc2ccccc2)cc1 [bibenzyl] |
| 212 | COc1ccc2c(c1)=NC(c1ccccc1)C=2c1ccccc1 (stereo not given) [6-methoxy-2,3-diphenyl-1H-indole] |
| 0 | COc1cccc(N)c1 [m-anisidine] |
| 94.5 | O=C(C(=O)c1ccccc1)c1ccccc1 [Benzil] |
| 150 | Nc1ccc(C(O)(C(F)(F)F)C(F)(F)F)cc1 [2-(4-aminophenyl)-1,1,1,3,3,3-hexafluoro-2-propanol] |
| 209 | c1ccc(COc2cccc(-c3nnn[nH]3)c2)cc1 [5-(3-benzyloxyphenyl)-1h-tetrazole] |
| 196 | O=Cc1ccc(OCC(=O)O)cc1 [4-formylphenoxyacetic acid] |
| 29 | C=Cc1ccccc1O [o-vinyl_phenol] |
| 13 | Cc1c(N=C=O)cccc1N=C=O [toluene-2,6-diisocyanate] |
| 164 | CC(C)NCC(O)COc1cccc2ccccc12 (stereo not given) [Propranolol] |
